One may read the Ki as a dissociation constant, usually derived from enzyme kinetics or from competition with a known ligand. Read a high Ki as weaker binding.

For assay [1], the target named is T1, Histamine H3 receptor (Homo sapiens, UniProt Q9Y5N1). The assay is described as follows: Displacement of [3H]Nalpha-methylahistamine from human histamine H3 receptor. Background: Displacement assays read how much labelled ligand stays bound in the presence of the test substance.
In assay [2] the target is Histamine H4 receptor (Homo sapiens, UniProt Q9H3N8). Description: Displacement of [3H]histamine from human histamine H4 receptor.
Sequence of Histamine H4 receptor (Q9H3N8 whole entry): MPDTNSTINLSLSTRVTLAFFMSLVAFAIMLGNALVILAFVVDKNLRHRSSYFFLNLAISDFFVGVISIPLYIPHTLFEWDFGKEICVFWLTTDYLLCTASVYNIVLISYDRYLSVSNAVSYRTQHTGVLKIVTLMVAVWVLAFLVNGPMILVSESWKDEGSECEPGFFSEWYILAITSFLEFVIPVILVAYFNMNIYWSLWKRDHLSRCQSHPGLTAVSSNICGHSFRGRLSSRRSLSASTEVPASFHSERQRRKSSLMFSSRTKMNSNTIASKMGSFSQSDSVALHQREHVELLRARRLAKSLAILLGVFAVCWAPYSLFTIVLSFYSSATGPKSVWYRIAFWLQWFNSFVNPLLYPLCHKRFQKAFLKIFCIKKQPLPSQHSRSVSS
The target of assay [3] is T1, Histamine H3 receptor. Description: Binding affinity to histamine H3 receptor.

T1 sequence (Q9Y5N1 whole entry): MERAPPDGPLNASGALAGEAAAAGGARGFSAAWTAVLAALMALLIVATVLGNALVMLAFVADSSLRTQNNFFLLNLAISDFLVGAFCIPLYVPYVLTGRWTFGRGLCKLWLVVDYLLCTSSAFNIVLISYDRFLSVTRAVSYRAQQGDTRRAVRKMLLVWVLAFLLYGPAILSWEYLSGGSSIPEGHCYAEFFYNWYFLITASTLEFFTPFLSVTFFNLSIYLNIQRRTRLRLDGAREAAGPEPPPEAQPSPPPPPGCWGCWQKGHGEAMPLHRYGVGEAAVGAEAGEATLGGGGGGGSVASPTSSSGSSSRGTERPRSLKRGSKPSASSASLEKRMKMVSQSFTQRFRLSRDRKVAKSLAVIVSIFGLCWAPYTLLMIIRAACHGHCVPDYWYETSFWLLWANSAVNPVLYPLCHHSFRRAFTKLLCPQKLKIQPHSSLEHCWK

Consider `Cc1nc[nH]c1[C@@H]1C[C@H]1CCNCc1ccc(Cl)cc1`, for which the Ki in assay [1] was determined as 38.7 nM; in assay [2] it was 148 nM.
In the case of `NCC[C@@H]1C[C@@H]1c1cnc[nH]1`, in assay [3], affinity was put at a Ki of 1.3 nM.
For `Cc1[nH]cnc1[C@@H]1C[C@H]1CNCc1ccc(Cl)cc1`, the Ki in assay [1] and in assay [2] was greater than 1000 nM in each case.

Values taken from ChEMBL document CHEMBL1159097, “Synthesis and structural and pharmacological properties of cyclopropane-based conformationally restricted analogs of 4-methylhistamine as histamine H3/H4 receptor ligands” (Bioorg Med Chem, 2010).
